pIC50: −log10 of the molar value.

Sequence of EGFR (P00533 25-1210): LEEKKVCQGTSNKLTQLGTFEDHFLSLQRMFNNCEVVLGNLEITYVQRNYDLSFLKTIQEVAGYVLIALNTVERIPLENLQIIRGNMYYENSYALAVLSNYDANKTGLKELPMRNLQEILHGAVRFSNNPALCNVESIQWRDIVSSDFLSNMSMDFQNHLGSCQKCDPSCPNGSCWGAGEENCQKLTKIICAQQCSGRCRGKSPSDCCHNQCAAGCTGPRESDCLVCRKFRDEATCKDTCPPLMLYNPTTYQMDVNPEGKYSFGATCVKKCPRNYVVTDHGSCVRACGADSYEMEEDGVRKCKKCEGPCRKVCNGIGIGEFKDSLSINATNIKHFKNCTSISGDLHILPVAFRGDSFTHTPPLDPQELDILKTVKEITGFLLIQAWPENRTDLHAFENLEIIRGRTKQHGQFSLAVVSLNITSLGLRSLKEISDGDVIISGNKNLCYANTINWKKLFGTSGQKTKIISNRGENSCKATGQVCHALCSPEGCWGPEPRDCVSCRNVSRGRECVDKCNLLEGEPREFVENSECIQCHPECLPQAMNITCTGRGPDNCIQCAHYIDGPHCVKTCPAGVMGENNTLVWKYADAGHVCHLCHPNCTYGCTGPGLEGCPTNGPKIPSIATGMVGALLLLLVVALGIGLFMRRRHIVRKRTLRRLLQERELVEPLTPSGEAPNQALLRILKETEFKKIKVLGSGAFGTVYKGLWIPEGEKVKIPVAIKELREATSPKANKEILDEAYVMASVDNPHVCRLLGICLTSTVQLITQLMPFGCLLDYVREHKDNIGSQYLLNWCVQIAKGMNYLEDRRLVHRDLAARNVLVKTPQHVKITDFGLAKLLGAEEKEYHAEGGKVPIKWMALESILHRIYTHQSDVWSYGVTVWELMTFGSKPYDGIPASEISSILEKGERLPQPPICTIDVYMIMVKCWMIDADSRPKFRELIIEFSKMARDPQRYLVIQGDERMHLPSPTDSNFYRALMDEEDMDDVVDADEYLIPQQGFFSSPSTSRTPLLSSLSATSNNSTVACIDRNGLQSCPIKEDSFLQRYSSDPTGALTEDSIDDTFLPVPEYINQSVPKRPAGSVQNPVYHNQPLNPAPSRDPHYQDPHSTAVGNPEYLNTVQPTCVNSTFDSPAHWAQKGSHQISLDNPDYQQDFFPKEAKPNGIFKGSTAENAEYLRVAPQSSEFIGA

One experiment deals with A431 cells. Nature of the experiment: A431 growth assay (2% FBS). In kind it is cell-based. As to conditions: Homo sapiens, A-431, read-out: A431 growth (2% FBS) IC50.
`COc1c(C(C)C)cc(/C=C2/C(=O)Nc3cc(O)ccc32)cc1C(C)C` [Example 4, 3-(3,5-Diisopropyl-4-methoxybenzylidene)-6-hydroxy-1,3-dihydroindol-2-one]: the negative-log IC50 (pIC50) is 5.29.

Regarding `COc1c(C(C)C)cc(/C=C2/C(=O)Nc3cc(NC(C)=O)ccc32)cc1C(C)C` [Example 3, N-[3-(3,5-Diisopropyl-4-methoxybenzylidene)-2-oxo-2,3-dihydro-1H-indol-6-yl]-acetamide], the negative logarithm of the IC50 (pIC50) is 5.66.

Another experiment deals with EGFR (Homo sapiens, UniProt P00533). Nature of the experiment: Biochemical EGFR assay (ELISA, A431 cell lysate). As to conditions: read-out: bio EGFr IC50. Set-up: A431 cell lysate (Screening Lab, SUGEN, Inc.); host or cells: A431. The procedure, abridged:
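EGFR captured from A431 cell lysate onto anti-EGFR-coated plates, then incubated with test compound for 30 min at room temperature. Tyrosine phosphorylation with ATP/MnCl2 was stopped with EDTA after 5 min and detected by anti-phosphotyrosine ELISA with peroxidase/ABTS read-out.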
On the technique in general: An ELISA detects its analyte on a solid surface through an enzyme-linked reagent.
For the molecule `COc1c(C(C)C)cc(/C=C2/C(=O)Nc3cc(O)ccc32)cc1C(C)C` [Example 4, 3-(3,5-Diisopropyl-4-methoxybenzylidene)-6-hydroxy-1,3-dihydroindol-2-one], the pIC50 is less than 4.00. The same measure, in the same setting: to `COc1c(C(C)C)cc(/C=C2/C(=O)Nc3ncccc32)cc1C(C)C` [Example 74, 3-(3,5-Diisopropyl-4-methoxybenzylidene)-1,3-dihydropyrrolo[2,3-b]pyridin-2-one] belongs 4.88.

Turning to `CC(=O)Nc1ccc2c(c1)NC(=O)/C2=C/c1ccc(OCCN2CCOCC2)c(C(C)(C)C)c1` [Example 55, N-{3-[3-tert-Butyl-4-(2-morpholin-4-ylethoxy)-benzylidene]-2-oxo-2,3-dihydro-1H-indol-6-yl}-acetamide], the pIC50 was less than 4.00. With `COc1ccc2c(c1)NC(=O)/C2=C/c1ccc(OC)c(-c2ccsc2)c1` [Example 64, 6-Methoxy-3-(4-methoxy-3-thiophen-3-ylbenzylidene)-1,3-dihydroindol-2-one], the pIC50 is less than 4.00. On the same count and under the same terms, next, `COc1ccc(/C=C2\C(=O)Nc3cccc(C)c32)cc1C1CCCCC1` [Example 68, 3-(3-Cyclohexyl-4-methoxybenzylidene)-4-methyl-1,3-dihydroindol-2-one]: less than 4.00; `O=C1Nc2ncccc2/C1=C\c1ccc2c(c1)CCO2` [Example 73, 3-(2,3-Dihydrobenzofuran-5-ylmethylene)-1,3-dihydropyrrolo[2,3-b]pyridin-2-one]: 5.10. Take `COc1ccc(/C=C2\C(=O)Nc3cccc(C)c32)cc1C1CCCC1` [Example 48, 3-(3-Cyclopentyl-4-methoxybenzylidene)-4-methyl-1,3-dihydroindol-2-one]: the pIC50 is less than 4.00. Still for that read-out and setting: next, `COc1ccc(/C=C2/C(=O)Nc3ccc(Cl)cc32)cc1C1CCCCC1` [Example 51, 5-Chloro-3-(3-cyclohexyl-4-methoxybenzylidene)-1,3-dihydroindol-2-one]: less than 4.00; `Cc1cccc2c1/C(=C/c1ccc3c(c1)CCC(C)(C)O3)C(=O)N2` [Example 41, 3-(2,2-Dimethylchroman-6-ylmethylene)-4-methyl-1,3-dihydroindol-2-one]: less than 4.00; `Cc1cccc2c1/C(=C/c1cc3ccccc3[nH]1)C(=O)N2` [Example 166, 3-(1H-indol-2-ylmethylene)-4-methyl-1,3-dihydro-indol-2-one]: less than 4.00. As for `COc1ccccc1-c1ccc2c(c1)NC(=O)/C2=C\c1[nH]c(C)cc1CCC(=O)O` [Example 109, 3-{2-[6-(2-Methoxyphenyl)-2-oxo-1,2-dihydroindol-3-ylidenemethyl]-5-methyl-1H-pyrrol-3-yl}-propionic acid], the pIC50 is less than 4.00. In the case of `CCOC(=O)c1c(C)[nH]c(/C=C2\C(=O)Nc3cc(-c4ccccc4OC)ccc32)c1CCC(=O)O` [Example 110, 4-(2-Carboxyethyl)-5-[6-(2-methoxyphenyl)-2-oxo-1,2-dihydro-indol-3-ylidenemethyl]-2-methyl-1H-pyrrol-3-yl-carboxylic acid ethyl ester], the pIC50 was less than 4.00. Turning to `COc1ccc(/C=C2/C(=O)Nc3ncccc32)cc1C(C)C` [Example 70, 3-(3-Isopropyl-4-methoxybenzylidene)-1,3-dihydropyrrolo[2,3-b]pyridine-2-one], the pIC50 was 4.65. Regarding `CCOC(=O)c1c(C)[nH]c(/C=C2\C(=O)Nc3cc(-c4ccc(F)cc4)ccc32)c1CCC(=O)O` [Example 108, 4-(2-Carboxyethyl)-5-[6-(4-fluorophenyl)-2-oxo-1,2-dihydro-indol-3-ylidenemethyl]-2-methyl-1H-pyrrole-3-carboxylic acid ethyl ester], the pIC50 is less than 4.00.

In the case of `COc1ccc(/C=C2/C(=O)Nc3ccc(F)cc32)cc1C1CCCCC1` [Example 43, 3-(3-Cyclohexyl-4-methoxybenzylidene)-5-fluoro-1,3-dihydroindol-2-one], the pIC50 is less than 4.00. With `COc1ccc(/C=C2/C(=O)Nc3ccc(Cl)cc32)cc1-c1ccccc1` [Example 67, 5-Chloro-3-(6-methoxybiphenyl-3-ylmethylene)-1,3-dihydroindol-2-one], the pIC50 was less than 4.00. On the same count and under the same terms, to `COc1ccc(/C=C2/C(=O)Nc3ccc(F)cc32)cc1C(C)C` [Example 44, 5-Fluoro-3-(3-isopropyl-4-methoxybenzylidene)-1,3-dihydroindol-2-one] belongs less than 4.00. As to `Cc1cccc2c1/C(=C/c1ccc3c(c1)CCO3)C(=O)N2` [Example 69, 3-(2,3-Dihydrobenzofuran-5-ylmethylene)-4-methyl-1,3-dihydroindol-2-one], the pIC50 was less than 4.00.

`COc1ccc(/C=C2\C(=O)Nc3cccc(C)c32)cc1C(C)C` [Example 38, 3-(3-Isopropyl-4-methoxybenzylidene)-4-methyl-1,3-dihydroindol-2-one]: the pIC50 is less than 4.00. Still for that read-out and setting: next, `COc1c(C(C)C)cc(/C=C2/C(=O)Nc3cc(F)ccc32)cc1C(C)C` [Example 22, 3-(3,5-Diisopropyl-4-methoxybenzylidene)-6-fluoro-1,3-dihydroindol-2-one]: less than 4.00; `COc1ccc(/C=C2/C(=O)Nc3ccc(F)cc32)cc1-c1ccccc1` [Example 37, 5-Fluoro-3-(6-methoxybiphenyl-3-ylmethylene)-1,3-dihydroindol-2-one]: less than 4.00. For `CCc1ccc2c(c1)/C(=C\c1cc(C(C)C)c(OC)c(C(C)C)c1)C(=O)N2` [Example 28, 3-(3,5-Diisopropyl-4-methoxbenzylidene)-5-ethyl-1,3-dihydroindol-2-one], the pIC50 was less than 4.00.

As for `Cc1cc(CCC(=O)O)c(/C=C2\C(=O)Nc3cc(-c4ccc(F)cc4)ccc32)[nH]1` [Example 107, 3-{2-[6-(4-Fluorophenyl)-2-oxo-1,2-dihydroindol-3-ylidenemethyl]-5-methyl-1H-pyrrol-3-yl}propionic acid], the negative-log IC50 (pIC50) was less than 4.00.

As to `COc1ccc(/C=C2/C(=O)Nc3ncccc32)cc1C1CCCCC1` [Example 72, 3-(3-Cyclohexyl-4-methoxybenzylidene)-1,3-dihydropyrrolo[2,3-b]pyridin-2-one], the pIC50 was 4.93. On the same count and under the same terms, next, `O=C1Nc2ccc(Cl)cc2/C1=C\c1ccc2c(c1)CCO2` [Example 14, 5-Chloro-3-(2,3-dihydro-benzofuran-5-ylmethylene)-1,3-dihydroindol-2-one]: less than 4.00; `O=C1Nc2ccc(F)cc2/C1=C\c1ccc2c(c1)CCO2` [Example 42, 3-(2,3-Dihydrobenzofuran-5-ylmethylene)-5-fluoro-1,3-dihydroindol-2-one]: less than 4.00; `CNS(=O)(=O)c1ccc2c(c1)C(=Cc1[nH]c3ccccc3c1C)C(=O)N2` (racemic) [Example 154, 3-(3-Methyl-1H-indol-2-ylmethylene)-2-oxo-2,3-dihydro-1H-indole-5-sulfonic acid methylamide]: less than 4.00.

For the molecule `COc1c(C)cc(/C=C2/C(=O)Nc3ncccc32)cc1C` [Example 56, 3-(4-Methoxy-3,5-dimethylbenzylidene)-1,3-dihydropyrrolo[2,3-b]pyridin-2-one], the negative logarithm of the IC50 (pIC50) was 5.00. Take `COc1c(C(C)C)cc(/C=C2/C(=O)Nc3ccc(Br)cc32)cc1C(C)C` [Example 54, 5-Bromo-3-(3,5-diisopropyl-4-methoxybenzylidene)-1,3-dihydroindol-2-one]: the pIC50 was less than 4.00. On the same count and under the same terms, next, `O=C1Nc2ccc(Br)cc2/C1=C/c1cc2ccccc2[nH]1` [Example 165, 5-Bromo-3-(1H-indol-2-ylmethylene)-1,3-dihydro-indol-2-one]: less than 4.00; `COc1ccc(/C=C2/C(=O)Nc3ncccc32)cc1-c1ccccc1` [Example 71, 3-(6-Methoxybiphenyl-3-ylmethylene)-1,3-dihydropyrrolo[2,3-b]pyridin-2-one]: 4.53; `COc1c(C(C)C)cc(/C=C2\C(=O)Nc3cccc(C)c32)cc1C(C)C` [Example 53, 3-(3,5-Diisopropyl-4-methoxybenzylidene)-4-methyl-1,3-dihydroindol-2-one]: less than 4.00. Same read-out and setting: to `CC(=O)Nc1ccc2c(c1)NC(=O)/C2=C/c1ccc(OCCN2CCOCC2)c(-c2ccsc2)c1` [Example 50, N-{3-[4-(2-Morpholin-4-ylethoxy)-3-thiophen-3-ylbenzylidene]-2-oxo-2,3-dihydro-1H-indol-6-yl}-acetamide] belongs less than 4.00; to `COc1ccc(/C=C2/C(=O)Nc3ccccc32)cc1-c1ccccc1` [Example 65, 3-(6-Methoxybiphenyl-3-ylmethylene)-1,3-dihydroindol-2-one], less than 4.00. Same read-out and setting: next, `Cc1cc(CCC(=O)O)c(/C=C2\C(=O)Nc3ccc(Cl)cc32)[nH]1` [Example 111, 3-[2-(5-Chloro-2-oxo-1,2-dihydroindol-3-ylidenemethyl)-5-methyl-1H-pyrrol-3-yl]propionic acid]: less than 4.00; `COc1c(C(C)C)cc(/C=C2/C(=O)Nc3cc(N)ccc32)cc1C(C)C` [Example 32, 6-Amino-3-(3,5-diisoprotyl-4-methoxy-benzylidene)-1,3-dihydroindol-2-one]: less than 4.00.

With `O=C1Nc2ccccc2/C1=C\c1ccc2c(c1)CCO2` [Example 66, 3-(2,3-Dihydrobenzofuran-5-ylmethylene)-1,3-dihydroindol-2-one], the pIC50 was less than 4.00. The same measure, in the same setting: to `COc1c(C(C)C)cc(/C=C2/C(=O)Nc3cc(NC(=O)OC(C)(C)C)ccc32)cc1C(C)C` [Example 52, [3-(3,5-Diisopropyl-4-methoxybenzylidene)-2-oxo-2,3-dihydro-1H-indol-6-yl]-carbamic acid tert-butyl ester] belongs less than 4.00.

A word on the pIC50: it is −log10 of the IC50, conventionally taken in molar units.

The record behind these values is patent publication US6855730B2, “3-methylidenyl-2-indolinone modulators of protein kinase” (Sugen, Inc., priority 1998, dated 2005).
